Assay results as given in patent publication US20180147198A1, “COMBINATIONS OF PFKFB3 INHIBITORS AND IMMUNE CHECKPOINT INHIBITORS TO TREAT CANCER” (UNIVERSITY OF LOUISVILLE RESEARCH FOUNDATION, INC., priority 2015, published 2018).

Key:
PBMCs = test: Immunophenotyping by flow cytometry of PBMCs of 4 metastatic cancer patients; assay type: in vivo, human; details: of 4 patients; after 15 days of administration
Description: (§1) 18 cancer patients completed 2 cycles of 24-470 mg/M^2 PFK-158; 5 of these patients experienced stabilization of their disease (i.e. no growth and no new tumors) and tumor regressions have been observed in multiple patients. For example, a person with renal cell carcinoma who had progressed after all available FDA-approved agents including mTOR and VEGFR inhibitors and IL-2 entered the study (470 mg/M^2). They experienced stabilization of disease by immune-related response criteria (26% reduction in maximum diameters) with multiple tumors regressing and has entered their seventh month of treatment. Of these 18 patients, immunophenotyping by flow cytometry on 4 patients' PBMCs has been carried out. These four patients were administered PFK-158 for 2 weeks and PBMCs were collected at baseline, day 15, and then analyzed by flow cytometry for CD3+CD4+il-17+ cells and CD8+CD137+ T cells.

γδT17 cells = test: IL-17A production (ELISA) during in vitro polarization of Vγ9Vδ2 T cells; assay type: cell-based, human; details: PFK-158 every two days of culture, FIG. 17E,F
Excerpt: (§2) The differentiation of Th17 cells from naïve CD4^+ T cells was induced and, for γδT17 cells, naïve Vγ9Vδ2 T cells were isolated from healthy donors and polarized into IL-17 producing γ6T cells using established methods.
(§3) Human naïve CD4^+ T cells differentiated into Th17 cells or sorted human naïve Vγ9Vδ2 T cells were polarized in vitro and analyzed for PFKFB2-4 mRNA (FIG. 17 A,B), F26BP, and PFKFB3 protein (FIG. 17 C,D). The CD4^+ T cells (during in vitro Th17 differentiation) and Vγ9Vδ2 T cells (during in vitro polarization) were exposed to vehicle (DMSO) or the indicated concentrations of PFK-158 (every two days of the culture period) and IL-17A production was quantified by ELISA (FIG. 17 E,F).

Th17 cells = test: IL-17A production (ELISA) during in vitro Th17 differentiation; assay type: cell-based, human; details: PFK-158 every two days of culture, FIG. 17E,F
Excerpt: as §2, §3

[1] = tested on: peripheral blood mononuclear cells; test: Flow cytometry of peripheral blood mononuclear cells of a breast cancer patient receiving PFK-158; assay type: in vivo, human; details: after 1 week, persisted through treatment
Description: An unexpected stability of tumors in multiple patients receiving PFK-158 at doses that were considered to be sub-therapeutic has been observed. […] This breast adenocarcinoma patient received 96 mg/M^2 of PFK-158 every other day for three weeks followed by a one week rest—this cycle was repeated for a total of four cycles. Peripheral blood mononuclear cells were collected on days 1, 8, 15, 22 and 62 and flow cytometry was conducted for a multitude of immunosuppressive cells and activated T cells. […] These cells are the main CD8+ T cells that can infiltrate tumors and differentiate into cytolytic T cells which kill tumor cells. […]
Given the decrease in Th17 cells and increase in effector CD8^+ T cells observed after PFK-158 administration, the ability of PFK-158 to cause an increase in terminally-differentiated CD8^+ effector cells was examined. CD8^+CD57^+CD27^− TCD28^− The breast cancer patient described in Example 7 was administered PFK-158 for 1 cycle and PBMCs were collected at baseline, day 8, 15, 22, and then analyzed for CD8^+CD57^+CD27^− TCD28^− T cells and PD-1. […]
CD57 is a terminally sulfated carbohydrate that is selectively expressed on antigen-specific, and functionally competent memory/effector CD8^+ T cells. […] PBMCs were collected at baseline, day 8, 15, and 22 and CD8^+CD57^+CD27^− CD28^− T cells were analyzed for CD57 expression. […]

cancer patients = test: Phase 1 trial of PFK-158 in cancer patients (clinical response, tolerability); assay type: in vivo
Description: A phase 1 trial of PFK-158 in cancer patients is currently being conducted at Georgetown University, UT Southwestern, Md. Anderson Cancer Center and the U. of Louisville (clinicaltrials.gov# NCT02044861). […] Institutional investigators have observed partial tumor regressions in 3 patients with ocular melanoma, ovarian cancer and renal cell carcinoma and de novo stabilization of tumor burden in 2 patients (breast and adenoid cystic carcinoma). A person with ocular melanoma was administered 24 mg/M^2 in cohort 1 of the phase 1 trial of PFK-158—a dose that is markedly lower than that required to cause the known cytotoxic effects of PFK-158. […] Over the course of six months of therapy, several of the patient's hepatic metastases first became necrotic after 2 monthly cycles (hypoattenuation appears dark on CT imaging) and then shrunk after 6 cycles (FIG. 18).
The patient was administered PFK-158 for 4 cycles and their bony metastases were deemed to be stable (FIG. 19, left two panels) and several liver metastases became necrotic (FIG. 19, right panel).
as §1

[2] = tested on: imiquimod-induced psoriasis; details: mice; cited from earlier work
[3] = tested on: delayed type hypersensitivity to methylated BSA; details: mice; cited from earlier work
human CD3+ T cells = details: 1-10 μM; anti-CD3/anti-CD28 microbead stimulation; cited from earlier work

SMILES | patients with a reduction in frequency of Th17 cells (PBMCs) | concentration reducing IL-17A, fold less than required to inhibit neoplastic and endothelial cells growth (γδT17 cells) | concentration reducing IL-17A, fold less than required to inhibit neoplastic and endothelial cells growth (Th17 cells) | increase in circulating cancer-reactive CD8+/CD57+/CD27-/CD28- T cells [1] | patients with de novo stabilization of tumor burden (cancer patients; breast and adenoid cystic carcinoma) | patients with partial tumor regressions (cancer patients; ocular melanoma, ovarian cancer and renal cell carcinoma) | patients with stabilization of their disease (cancer patients; of 18 cancer patients who completed 2 cycles of 24-470 mg/M^2) | reduction in maximum diameters (immune-related response criteria) (cancer patients; person with renal cell carcinoma, 470 mg/M^2) | maximum tolerated dose (cancer patients; phase 1 trial, entered cohort 7, currently at 650 mg/M^2) | development of imiquimod-induced psoriasis [2] | development of delayed type hypersensitivity to methylated BSA [3] | stimulation of F2,6BP synthesis, 2-[1-14C]-deoxy-D-glucose uptake, lactate secretion, TNF-α secretion and T cell aggregation and proliferation (human CD3+ T cells)
O=C(/C=C/c1ccc2ccc(C(F)(F)F)cc2n1)c1ccncc1 [PFK-158, (E)-1-(pyridyn-4-yl)-3-(7-(trifluoromethyl)quinolin-2-yl)-prop-2-en-1-one] | 4 patients | ~10 fold | ~10 fold | 36% | 2 patients | 3 patients | 5 patients | 26% | without reaching a maximum tolerated dose |  |  | 
O=C(C=Cc1cccnc1)c1ccncc1 [3PO, 3-(3-pyridinyl)-1-(4-pyridinyl)-2-propen-1-one] |  |  |  |  |  |  |  |  |  | suppressed | suppressed | markedly attenuated
